Measured values taken from patent publication EP0025288A1, “Derivatives of monic acid, processes for their preparation, compositions containing them and their preparation” (priority 1979, dated 1981).

Assays:
Format in all cases: cell-based
E coli NCTC 10418 [1] = test: MIC, human bacteria, serial dilution in nutrient agar; settings: nutrient agar containing 5% 'chocolated' horse blood
E coli ESS = test: as above; settings: nutrient agar containing 5% 'chocolated' horse blood
P mirabilis 889 = test: as above; settings: nutrient agar containing 5% 'chocolated' horse blood
K aerogenes A = test: as above; settings: nutrient agar containing 5% 'chocolated' horse blood
Ps aeruginosa 10662 = test: as above; settings: nutrient agar containing 5% 'chocolated' horse blood
[2] = test system: Pasteurella multocida 1633; test: as above; settings: nutrient agar containing 5% 'chocolated' horse blood
[3] = test system: Haemophilus influenzae Q1; test: as above; settings: nutrient agar containing 5% 'chocolated' horse blood
[4] = test system: Haemophilus influenzae Wy21; test: as above; settings: nutrient agar containing 5% 'chocolated' horse blood
[5] = test system: Neisseria flavescens 8263; test: as above; settings: nutrient agar containing 5% 'chocolated' horse blood
Bacillus subtilis 6633 = test: as above; settings: nutrient agar containing 5% 'chocolated' horse blood
[6] = test system: Corynebacterium zerosis 9755; test: as above; settings: nutrient agar containing 5% 'chocolated' horse blood
Sercina lutea 8340 = test: as above; settings: nutrient agar containing 5% 'chocolated' horse blood
Staph aureus Oxford [7] = test: as above; settings: nutrient agar containing 5% 'chocolated' horse blood
Staph aureus Russell = test: as above; settings: nutrient agar containing 5% 'chocolated' horse blood
Staph aureus W2827 = test: as above; settings: nutrient agar containing 5% 'chocolated' horse blood
Strep faecalis I = test: as above; settings: nutrient agar containing 5% 'chocolated' horse blood
Strep pyogenes A 64/848 = test: as above; settings: nutrient agar containing 5% 'chocolated' horse blood
Strep pyogenes B 2788 = test: as above; settings: nutrient agar containing 5% 'chocolated' horse blood
Strep pyogenes C 2761 = test: as above; settings: nutrient agar containing 5% 'chocolated' horse blood
Strep pneumoniae CN33 = test: as above; settings: nutrient agar containing 5% 'chocolated' horse blood
E coli NCTC 10418 [8] = test: MIC, veterinary bacteria; settings: veterinary bacteria (Table 2)
E coli E1 = test: MIC, veterinary bacteria; settings: veterinary bacteria (Table 2)
S dublin S7 = test: MIC, veterinary bacteria; settings: veterinary bacteria (Table 2)
S typhimurium S18 = test: MIC, veterinary bacteria; settings: veterinary bacteria (Table 2)
Bord bronchiseptica BO8 = test: MIC, veterinary bacteria; settings: veterinary bacteria (Table 2)
Bord bronchisptica BO9 = test: MIC, veterinary bacteria; settings: veterinary bacteria (Table 2)
Past multocida PA1 = test: MIC, veterinary bacteria; settings: veterinary bacteria (Table 2)
Past multocida PA2 = test: MIC, veterinary bacteria; settings: veterinary bacteria (Table 2)
Past Haemolytica PA5 = test: MIC, veterinary bacteria; settings: veterinary bacteria (Table 2)
[9] = test system: Erysipelothrix rhusiopathiae NCTC 8163; test: MIC, veterinary bacteria; settings: veterinary bacteria (Table 2)
[10] = test system: Corynebacterium pyogenes CY1; test: MIC, veterinary bacteria; settings: veterinary bacteria (Table 2)
[11] = test system: Staph aureus B4 (pen resis); test: MIC, veterinary bacteria; settings: veterinary bacteria (Table 2)
[12] = test system: Staph aureus 152 (pen sens); test: MIC, veterinary bacteria; settings: veterinary bacteria (Table 2)
Staph aureus Oxford [13] = test: MIC, veterinary bacteria; settings: veterinary bacteria (Table 2)
[14] = test system: Strep suis (group D) SPS11; test: MIC, veterinary bacteria; settings: veterinary bacteria (Table 2)
Strep uberis SPU1 = test: MIC, veterinary bacteria; settings: veterinary bacteria (Table 2)
Strep dysgalaciae SPD1 = test: MIC, veterinary bacteria; settings: veterinary bacteria (Table 2)
Strep agalactiae SPA1 = test: MIC, veterinary bacteria; settings: veterinary bacteria (Table 2)
M suipneumoniae Str 11 = test: MIC, anti-mycoplasmal, Friis' broth microtiter method
[15] = test system: M suipneumoniae J2206/183b; test: as above
M dispar H225 = test: as above
M dispar NCTC 10125 = test: as above
M pneumoniae 427a [16] = test: as above
M pneumoniae ATCC 15492 [17] = test: as above
M fermentans MWKL4 [18] = test: as above
M pulmonis JB [19] = test: as above
M pneumoniae 427a [20] = test: MIC, anti-mycoplasmal, serial dilution in Friis' agar
M pneumoniae ATCC 15492 [21] = test: as above
M bovis ATCC 25025 = test: as above
M bovis NCTC 10131 = test: as above
M fermentans MWKL4 [22] = test: as above
M pulmonis JB [23] = test: as above
M hyorhinis ATCC 23234 = test: as above
M hyosynoviae ATCC 25591 = test: as above
M arthritidis ATCC 14124 = test: as above
M gallisepticum S6 = test: as above
M synoviae ATCC 25204 = test: as above
M alkalescens NCTC 10135 = test: as above
[24] = test system: M bovigenitalium ATCC 14173; test: as above

Q: What does the source list for 8-Acetvloctyl Monate A [Example 3]?
A: MIC (E coli NCTC 10418 [1]): 100 µm/ml; MIC (E coli ESS): 0.5 µm/ml; MIC (P mirabilis 889): >100 µm/ml; MIC (K aerogenes A): >100 µm/ml; MIC (Ps aeruginosa 10662): >100 µm/ml; MIC [2]: 1.0 µm/ml; MIC [3]: 0.2 µm/ml; MIC [4]: 0.2 µm/ml; MIC [5]: 0.1 µm/ml; MIC (Bacillus subtilis 6633): 0.2 µm/ml; MIC [6]: 100 µm/ml; MIC (Sercina lutea 8340): >100 µm/ml; MIC (Staph aureus Oxford [7]): 0.1 µm/ml; MIC (Staph aureus Russell): 9.5 µm/ml; MIC (Staph aureus W2827): 100 µm/ml; MIC (Strep faecalis I): 100 µm/ml; MIC (Strep pyogenes A 64/848): 0.2 µm/ml; MIC (Strep pyogenes B 2788): 0.5 µm/ml; MIC (Strep pyogenes C 2761): 0.5 µm/ml; MIC (Strep pneumoniae CN33): 0.2 µm/ml; MIC (E coli NCTC 10418 [8]): >80 µg/mL; MIC (E coli E1): >80 µg/mL; MIC (S dublin S7): >80 µg/mL; MIC (S typhimurium S18): >80 µg/mL; MIC (Bord bronchiseptica BO8): 20 µg/mL; MIC (Bord bronchisptica BO9): 5 µg/mL; MIC (Past multocida PA1): 2.5 µg/mL; MIC (Past multocida PA2): 0.156 µg/mL; MIC (Past Haemolytica PA5): 20 µg/mL; MIC [9]: 10 µg/mL; MIC [10]: >80 µg/mL; MIC [11]: 0.312 µg/mL; MIC [12]: 0.312 µg/mL; MIC (Staph aureus Oxford [13]): 0.312 µg/mL; MIC [14]: 1.25 µg/mL; MIC (Strep uberis SPU1): 0.07 µg/mL; MIC (Strep dysgalaciae SPD1): 0.156 µg/mL; MIC (Strep agalactiae SPA1): 0.625 µg/mL; in vitro MIC, BROTH (M suipneumoniae Str 11): 0.039 µg/mL; in vitro MIC, BROTH [15]: 0.156 µg/mL; in vitro MIC, BROTH (M dispar H225): 0.039 µg/mL; in vitro MIC, BROTH (M dispar NCTC 10125): <0.02 µg/mL; in vitro MIC, BROTH (M pneumoniae 427a [16]): 0.312 µg/mL; in vitro MIC, BROTH (M pneumoniae ATCC 15492 [17]): 0.312 µg/mL; in vitro MIC, BROTH (M fermentans MWKL4 [18]): <0.02 µg/mL; in vitro MIC, BROTH (M pulmonis JB [19]): <0.02 µg/mL; in vitro MIC, AGAR (M pneumoniae 427a [20]): 1.25 µg/mL; in vitro MIC, AGAR (M pneumoniae ATCC 15492 [21]): 1.25 µg/mL; in vitro MIC, AGAR (M bovis ATCC 25025): 0.039 µg/mL; in vitro MIC, AGAR (M bovis NCTC 10131): ≤0.02 µg/mL; in vitro MIC, AGAR (M fermentans MWKL4 [22]): 0.039 µg/mL; in vitro MIC, AGAR (M pulmonis JB [23]): 0.039 µg/mL; in vitro MIC, AGAR (M hyorhinis ATCC 23234): 0.625 µg/mL; in vitro MIC, AGAR (M hyosynoviae ATCC 25591): 0.156 µg/mL; in vitro MIC, AGAR (M arthritidis ATCC 14124): 2.5 µg/mL; in vitro MIC, AGAR (M gallisepticum S6): 5.0 µg/mL; in vitro MIC, AGAR (M synoviae ATCC 25204): <0.02 µg/mL; in vitro MIC, AGAR (M alkalescens NCTC 10135): 0.039 µg/mL; in vitro MIC, AGAR [24]: 0.078 µg/mL
